{"source": "patent US12435031B2", "about": "“Compound with broad-spectrum antibacterial activity and its antibacterial composition” (CHINA AGRICULTURAL UNIVERSITY, priority 2023, dated 2025)", "system": "Clostridium perfringens", "experiment": "microbe, parasite or virus in culture", "assay_type": "cell-based", "key": {"[1]": {"conditions": "Clostridium perfringens, read-out: MIC value against Clostridium perfringens, strain A3-1 (A-type)"}, "[2]": {"conditions": "Clostridium perfringens, read-out: MIC value against Clostridium perfringens, strain A3-2 (A-type)"}, "[3]": {"conditions": "Clostridium perfringens, read-out: MIC value against Clostridium perfringens, strain A57-1 (A-type)"}, "[4]": {"conditions": "Clostridium perfringens, read-out: MIC value against Clostridium perfringens, strain B4 (B-type)"}, "[5]": {"conditions": "Clostridium perfringens, read-out: MIC value against Clostridium perfringens, strain B5 (B-type)"}, "[6]": {"conditions": "Clostridium perfringens, read-out: MIC value against Clostridium perfringens, strain C3 (C-type)"}, "[7]": {"conditions": "Clostridium perfringens, read-out: MIC value against Clostridium perfringens, strain C8 (C-type)"}, "[8]": {"conditions": "Clostridium perfringens, read-out: MIC value against Clostridium perfringens, strain C59-1 (C-type)"}, "[9]": {"conditions": "Clostridium perfringens, read-out: MIC value against Clostridium perfringens, strain D14B (D-type)"}, "[10]": {"conditions": "Clostridium perfringens, read-out: MIC value against Clostridium perfringens, strain F5-2 (F-type)"}, "[11]": {"conditions": "Clostridium perfringens, read-out: MIC value against Clostridium perfringens, strain F6-1 (F-type)"}, "[12]": {"conditions": "Clostridium perfringens, read-out: MIC value against Clostridium perfringens, strain F6-2 (F-type)"}, "[13]": {"conditions": "Clostridium perfringens, read-out: MIC value against Clostridium perfringens, strain F6-2-1 (F-type)"}, "[14]": {"conditions": "Clostridium perfringens, read-out: MIC value against Clostridium perfringens, strain F6-2-2 (F-type)"}, "[15]": {"conditions": "Clostridium perfringens, read-out: MIC value against Clostridium perfringens, strain F7-1 (F-type)"}, "[16]": {"conditions": "Clostridium perfringens, read-out: MIC value against Clostridium perfringens, strain F8-1 (F-type)"}, "[17]": {"conditions": "Clostridium perfringens, read-out: MIC value against Clostridium perfringens, strain H12-1 (H-type)"}, "[18]": {"conditions": "Clostridium perfringens, read-out: MIC value against Clostridium perfringens, strain H12-2 (H-type)"}, "[19]": {"conditions": "Clostridium perfringens, read-out: MIC value against Clostridium perfringens, strain H13-1 (H-type)"}, "[20]": {"conditions": "Clostridium perfringens, read-out: MIC value against Clostridium perfringens, strain H14-1 (H-type)"}, "[21]": {"conditions": "Clostridium perfringens, read-out: MIC value against Clostridium perfringens, strain H14-2 (H-type)"}, "[22]": {"conditions": "Clostridium perfringens, read-out: MIC value against Clostridium perfringens, strain H14-4 (H-type)"}, "[23]": {"conditions": "Clostridium perfringens, read-out: MIC value against Clostridium perfringens, strain H15-1 (H-type)"}, "[24]": {"conditions": "Clostridium perfringens, read-out: MIC value against Clostridium perfringens, strain H15-2 (H-type)"}, "[25]": {"conditions": "Clostridium perfringens, read-out: MIC value against Clostridium perfringens, strain H15-3 (H-type)"}, "[26]": {"conditions": "Clostridium perfringens, read-out: MIC value against Clostridium perfringens, strain H16 (H-type)"}}, "note": "Like-named read-outs stand apart in the source and are kept apart here."}
{"smiles": "CO/N=C(\\C(=O)N[C@@H]1C(=O)N2C(C(=O)O)=C(CSC(=O)c3ccco3)CS[C@H]12)c1csc(N)n1", "note": "[CEF, Ceftiofur]", "values": [{"measurement": "MIC", "setting": "[1]", "value": "≤ 0.25", "unit": "µg/mL"}, {"measurement": "MIC", "setting": "[2]", "value": "≤ 0.25", "unit": "µg/mL"}, {"measurement": "MIC", "setting": "[3]", "value": "≤ 0.25", "unit": "µg/mL"}, {"measurement": "MIC", "setting": "[4]", "value": "≤ 0.25", "unit": "µg/mL"}, {"measurement": "MIC", "setting": "[5]", "value": "≤ 0.25", "unit": "µg/mL"}, {"measurement": "MIC", "setting": "[6]", "value": 1, "unit": "µg/mL"}, {"measurement": "MIC", "setting": "[7]", "value": "≤ 0.25", "unit": "µg/mL"}, {"measurement": "MIC", "setting": "[8]", "value": "≤ 0.25", "unit": "µg/mL"}, {"measurement": "MIC", "setting": "[9]", "value": "≤ 0.25", "unit": "µg/mL"}, {"measurement": "MIC", "setting": "[10]", "value": "≤ 0.25", "unit": "µg/mL"}, {"measurement": "MIC", "setting": "[11]", "value": "≤ 0.25", "unit": "µg/mL"}, {"measurement": "MIC", "setting": "[12]", "value": "≤ 0.25", "unit": "µg/mL"}, {"measurement": "MIC", "setting": "[13]", "value": "≤ 0.25", "unit": "µg/mL"}, {"measurement": "MIC", "setting": "[14]", "value": "≤ 0.25", "unit": "µg/mL"}, {"measurement": "MIC", "setting": "[15]", "value": "≤ 0.25", "unit": "µg/mL"}, {"measurement": "MIC", "setting": "[16]", "value": "≤ 0.25", "unit": "µg/mL"}, {"measurement": "MIC", "setting": "[17]", "value": "≤ 0.25", "unit": "µg/mL"}, {"measurement": "MIC", "setting": "[18]", "value": "≤ 0.25", "unit": "µg/mL"}, {"measurement": "MIC", "setting": "[19]", "value": "≤ 0.25", "unit": "µg/mL"}, {"measurement": "MIC", "setting": "[20]", "value": "≤ 0.25", "unit": "µg/mL"}, {"measurement": "MIC", "setting": "[21]", "value": "≤ 0.25", "unit": "µg/mL"}, {"measurement": "MIC", "setting": "[22]", "value": "≤ 0.25", "unit": "µg/mL"}, {"measurement": "MIC", "setting": "[23]", "value": "≤ 0.25", "unit": "µg/mL"}, {"measurement": "MIC", "setting": "[24]", "value": "≤ 0.25", "unit": "µg/mL"}, {"measurement": "MIC", "setting": "[25]", "value": "≤ 0.25", "unit": "µg/mL"}, {"measurement": "MIC", "setting": "[26]", "value": "≤ 0.25", "unit": "µg/mL"}]}
{"smiles": "Cc1c(C(=O)C=Cc2ccccc2)[n+](=O)c2ccccc2n1[O-]", "note": "[QCT, Quincetone]", "values": [{"measurement": "MIC value against Clostridium perfringens", "setting": "strain A3-1 (A-type)", "value": 0.5, "unit": "µg/mL"}, {"measurement": "MIC value against Clostridium perfringens", "setting": "strain A3-2 (A-type)", "value": "≤0.25", "unit": "µg/mL"}, {"measurement": "MIC value against Clostridium perfringens", "setting": "strain A57-1 (A-type)", "value": "≤0.25", "unit": "µg/mL"}, {"measurement": "MIC value against Clostridium perfringens", "setting": "strain B4 (B-type)", "value": "≤0.25", "unit": "µg/mL"}, {"measurement": "MIC value against Clostridium perfringens", "setting": "strain B5 (B-type)", "value": "≤0.25", "unit": "µg/mL"}, {"measurement": "MIC value against Clostridium perfringens", "setting": "strain C3 (C-type)", "value": 1, "unit": "µg/mL"}, {"measurement": "MIC value against Clostridium perfringens", "setting": "strain C8 (C-type)", "value": "≤0.25", "unit": "µg/mL"}, {"measurement": "MIC value against Clostridium perfringens", "setting": "strain C59-1 (C-type)", "value": "≤0.25", "unit": "µg/mL"}, {"measurement": "MIC value against Clostridium perfringens", "setting": "strain D14B (D-type)", "value": "≤0.25", "unit": "µg/mL"}, {"measurement": "MIC value against Clostridium perfringens", "setting": "strain F5-2 (F-type)", "value": 0.5, "unit": "µg/mL"}, {"measurement": "MIC value against Clostridium perfringens", "setting": "strain F6-1 (F-type)", "value": 4, "unit": "µg/mL"}, {"measurement": "MIC value against Clostridium perfringens", "setting": "strain F6-2 (F-type)", "value": 0.5, "unit": "µg/mL"}, {"measurement": "MIC value against Clostridium perfringens", "setting": "strain F6-2-1 (F-type)", "value": 1, "unit": "µg/mL"}, {"measurement": "MIC value against Clostridium perfringens", "setting": "strain F6-2-2 (F-type)", "value": "≤0.25", "unit": "µg/mL"}, {"measurement": "MIC value against Clostridium perfringens", "setting": "strain F7-1 (F-type)", "value": "≤0.25", "unit": "µg/mL"}, {"measurement": "MIC value against Clostridium perfringens", "setting": "strain F8-1 (F-type)", "value": 0.5, "unit": "µg/mL"}, {"measurement": "MIC value against Clostridium perfringens", "setting": "strain H12-1 (H-type)", "value": "≤0.25", "unit": "µg/mL"}, {"measurement": "MIC value against Clostridium perfringens", "setting": "strain H12-2 (H-type)", "value": "≤0.25", "unit": "µg/mL"}, {"measurement": "MIC value against Clostridium perfringens", "setting": "strain H13-1 (H-type)", "value": "≤0.25", "unit": "µg/mL"}, {"measurement": "MIC value against Clostridium perfringens", "setting": "strain H14-1 (H-type)", "value": "≤0.25", "unit": "µg/mL"}, {"measurement": "MIC value against Clostridium perfringens", "setting": "strain H14-2 (H-type)", "value": 0.5, "unit": "µg/mL"}, {"measurement": "MIC value against Clostridium perfringens", "setting": "strain H14-4 (H-type)", "value": "≤0.25", "unit": "µg/mL"}, {"measurement": "MIC value against Clostridium perfringens", "setting": "strain H15-1 (H-type)", "value": "≤0.25", "unit": "µg/mL"}, {"measurement": "MIC value against Clostridium perfringens", "setting": "strain H15-2 (H-type)", "value": "≤0.25", "unit": "µg/mL"}, {"measurement": "MIC value against Clostridium perfringens", "setting": "strain H15-3 (H-type)", "value": 0.5, "unit": "µg/mL"}, {"measurement": "MIC value against Clostridium perfringens", "setting": "strain H16 (H-type)", "value": "≤0.25", "unit": "µg/mL"}]}
{"smiles": "CC[C@H]1OC(=O)C[C@@H](O)[C@H](C)[C@@H](O[C@@H]2O[C@H](C)[C@@H](O)[C@H](N(C)C)[C@H]2O)[C@@H](CCN2C[C@H](C)C[C@H](C)C2)C[C@@H](C)C(=O)/C=C/C(C)=C/[C@@H]1CO[C@@H]1O[C@H](C)[C@@H](O)[C@@H](OC)[C@H]1OC", "note": "[TMS, Tilmicosin]", "values": [{"measurement": "MIC50", "setting": "Clostridium perfringens", "value": 128, "unit": "µg/mL"}, {"measurement": "MIC90", "setting": "Clostridium perfringens", "value": "> 128", "unit": "µg/mL"}, {"measurement": "MIC", "setting": "[1]", "value": 4, "unit": "µg/mL"}, {"measurement": "MIC", "setting": "[2]", "value": 2, "unit": "µg/mL"}, {"measurement": "MIC", "setting": "[3]", "value": 4, "unit": "µg/mL"}, {"measurement": "MIC", "setting": "[4]", "value": "> 128", "unit": "µg/mL"}, {"measurement": "MIC", "setting": "[5]", "value": "> 128", "unit": "µg/mL"}, {"measurement": "MIC", "setting": "[6]", "value": "> 128", "unit": "µg/mL"}, {"measurement": "MIC", "setting": "[7]", "value": "> 128", "unit": "µg/mL"}, {"measurement": "MIC", "setting": "[8]", "value": 2, "unit": "µg/mL"}, {"measurement": "MIC", "setting": "[9]", "value": 128, "unit": "µg/mL"}, {"measurement": "MIC", "setting": "[10]", "value": 128, "unit": "µg/mL"}, {"measurement": "MIC", "setting": "[11]", "value": 128, "unit": "µg/mL"}, {"measurement": "MIC", "setting": "[12]", "value": 128, "unit": "µg/mL"}, {"measurement": "MIC", "setting": "[13]", "value": "> 128", "unit": "µg/mL"}, {"measurement": "MIC", "setting": "[14]", "value": 128, "unit": "µg/mL"}, {"measurement": "MIC", "setting": "[15]", "value": 64, "unit": "µg/mL"}, {"measurement": "MIC", "setting": "[16]", "value": 128, "unit": "µg/mL"}, {"measurement": "MIC", "setting": "[17]", "value": 4, "unit": "µg/mL"}, {"measurement": "MIC", "setting": "[18]", "value": 4, "unit": "µg/mL"}, {"measurement": "MIC", "setting": "[19]", "value": 4, "unit": "µg/mL"}, {"measurement": "MIC", "setting": "[20]", "value": 128, "unit": "µg/mL"}, {"measurement": "MIC", "setting": "[21]", "value": 128, "unit": "µg/mL"}, {"measurement": "MIC", "setting": "[22]", "value": 128, "unit": "µg/mL"}, {"measurement": "MIC", "setting": "[23]", "value": 4, "unit": "µg/mL"}, {"measurement": "MIC", "setting": "[24]", "value": 128, "unit": "µg/mL"}, {"measurement": "MIC", "setting": "[25]", "value": 4, "unit": "µg/mL"}, {"measurement": "MIC", "setting": "[26]", "value": 128, "unit": "µg/mL"}]}
